# Laboratory results taken from patent publication US11147853B2, “Polypeptide binding to a plurality of amyloid monomers and aggregates, and use thereof” (Hangzhou Wisdom Panacea Biologics Co., Ltd., priority 2015, dated 2021).
# Like-named read-outs stand apart in the source and are kept apart here. Where no end group is shown, it is not given here.
# What was measured:
# [1] = tested on: SH-SY5Y cells; conditions: for cell activity (MTT, relative to PBS control): Aβ42 4 μM, 48 hours, Aβ42 alone 71%
# Experimental: (§1) SH-SY5Y cells were prepared into a single cell suspension with a medium (DMEM) containing 10% fetal bovine serum and then inoculated into a 96-well cell culture plate at 10000 cells per well and with a volume of 100 μL per well. The cells were incubated at 37° C., 5% of CO2 concentration for 24 hours in an incubator.
# Aβ42: the final concentration of Aβ42 was 4 μM; a mixture of Aβ42 and ZR (Aβ:ZR=1:0.5): the final concentration of Aβ42 protein was 4 μM and the final concentration of ZR was 2 μM; a mixture of Aβ42 and ZR (Aβ: ZR=1:1): the final concentration of Aβ42 protein was 4 μM and the final concentration of ZR was 4 μM;
# (§2) Cells were further cultured for 48 hours, then 10 μL of MTT solution was added into each well and incubated at 37° C. for 3 hours. Then the incubation was stopped by adding 100 μL dissolve solution (10% SDS and 5% iso-butanol dissolved in 0.01 M HCL) to each well, and incubated at 37° C. overnight to fully dissolve the MTT crystals. The absorbance of each well was measured on a multifunctional ELISA reader at a wavelength of 570 nm. After subtracting the background, the absorbance of the sample was divided by the absorbance of PBS control to act as an indicator of the cell activity, and the significant differences were analyzed.
# [2] = tested on: SH-SY5Y cells; conditions: for cell activity (MTT, relative to PBS control): amylin 4 μM, 48 hours, amylin alone 61%
# Experimental: as §1
# Amylin: the final concentration of amylin was 4 μM; a mixture of Amylin and ZR (Amylin:ZR=1:1): the final concentration of Amylin protein was 4 μM and the final concentration of ZR was 4 μM; a mixture of Amylin and ZR (Amylin: ZR=1:10): the final concentration of Amylin protein was 4 μM and the final concentration of ZR was 40 μM;
# as §2
# [3] = tested on: SH-SY5Y cells; conditions: for cell activity (MTT, relative to PBS control): lysozyme 20 μM, 48 hours, lysozyme alone 55%
# Experimental: as §1
# Lysozyme: the final concentration of lysozyme was 20 μM; a mixture of lysozyme and ZR (lysozyme:ZR=1:1): the final concentration of lysozyme protein was 20 μM and the final concentration of ZR was 20 μM; a mixture of lysozyme and ZR (lysozyme: ZR=1:10): the final concentration of lysozyme protein was 20 μM and the final concentration of ZR was 200 μM;
# as §2
# [4] = tested on: SH-SY5Y cells; conditions: for cell activity (MTT, relative to PBS control): insulin 60 μM, 48 hours, insulin alone 77%
# Experimental: as §1
# Insulin: the final concentration of insulin was 60 μM; a mixture of insulin and ZR (insulin:ZR=1:1): the final concentration of insulin protein was 60 μM and the final concentration of ZR was 60 μM; a mixture of insulin and ZR (insulin: ZR=1:5): the final concentration of insulin protein was 60 μM and the final concentration of ZR was 300 μM; PBS was used as control;
# as §2
# [5] = biological target: Aβ42 oligomers (Homo sapiens, UniProt P05067); experiment: ELISA binding of histidine-tagged ZR derivatives to Aβ42 oligomers
# Sequence of Aβ42 oligomers (P05067 672-713 limits assumed): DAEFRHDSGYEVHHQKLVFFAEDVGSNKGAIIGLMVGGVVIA
substance,measurement,setting,value
"SFFNNKR [ZR, Ser-Phe-Phe-Asn-Asn-Lys-Arg]","cell activity (MTT, relative to PBS control)",[1]; ZR 2 μM (Aβ:ZR=1:0.5),80%
same,"cell activity (MTT, relative to PBS control)",[1]; ZR 4 μM (Aβ:ZR=1:1),82%
same,inhibition of cytotoxicity induced by Aβ42,[1]; molar ratio 1:1,37.8%
same,"cell activity (MTT, relative to PBS control)",[2]; ZR 4 μM (Amylin:ZR=1:1),70%
same,"cell activity (MTT, relative to PBS control)",[2]; ZR 40 μM (Amylin:ZR=1:10),75%
same,inhibition of cytotoxicity induced by amylin,[2]; molar ratio 1:10,45.4%
same,"cell activity (MTT, relative to PBS control)",[3]; ZR 20 μM (lysozyme:ZR=1:1),85%
same,"cell activity (MTT, relative to PBS control)",[3]; ZR 200 μM (lysozyme:ZR=1:10),93%
same,inhibition of cytotoxicity induced by lysozyme,[3]; molar ratio 1:10,117.6%
same,"cell activity (MTT, relative to PBS control)",[4]; ZR 60 μM (insulin:ZR=1:1),92%
same,"cell activity (MTT, relative to PBS control)",[4]; ZR 300 μM (insulin:ZR=1:5),102%
same,inhibition of cytotoxicity induced by insulin,[4]; molar ratio 1:5,89.8%
SFFNNKA [sequence 13],OD450 of binding to Aβ42 oligomers,[5],0.14
SFFNNAR [sequence 12],OD450 of binding to Aβ42 oligomers,[5],0.14
AFFNNKR [sequence 7],OD450 of binding to Aβ42 oligomers,[5],0.22
SFFNAKR [sequence 11],OD450 of binding to Aβ42 oligomers,[5],0.18
SFANNKR [sequence 9],OD450 of binding to Aβ42 oligomers,[5],0.15
